From the supplement of paper PMC13380429

Assays:
Settings in all cases: 72 h
Caco-2 [1] = assay: cell viability relative to DMSO; higher = less toxic
Calu-3 [2] = assay: as above
HepG2 [3] = assay: as above
U2OS [4] = assay: as above
Vero E6 [5] = assay: as above
Caco-2 [6] = assay: relative viability EC50 (midpoint between 100% and the lowest measured viability); higher = less toxic
Calu-3 [7] = assay: as above
HepG2 [8] = assay: as above
U2OS [9] = assay: as above
Vero E6 [10] = assay: as above
Caco-2 [11] = assay: drug sensitivity score (DSS) for viability; higher = more toxic; extreme values may be limits of the assay
Calu-3 [12] = assay: as above
HepG2 [13] = assay: as above
U2OS [14] = assay: as above
Vero E6 [15] = assay: as above

SMILES | cell viability (Caco-2 [1]; 1 nM) [%] | cell viability (Caco-2 [1]; 10 nM) [%] | cell viability (Caco-2 [1]; 100 nM) [%] | cell viability (Caco-2 [1]; 1000 nM) [%] | cell viability (Caco-2 [1]; 10000 nM) [%] | cell viability (Calu-3 [2]; 1 nM) [%] | cell viability (Calu-3 [2]; 10 nM) [%] | cell viability (Calu-3 [2]; 100 nM) [%] | cell viability (Calu-3 [2]; 1000 nM) [%] | cell viability (Calu-3 [2]; 10000 nM) [%] | cell viability (HepG2 [3]; 1 nM) [%] | cell viability (HepG2 [3]; 10 nM) [%] | cell viability (HepG2 [3]; 100 nM) [%] | cell viability (HepG2 [3]; 1000 nM) [%] | cell viability (HepG2 [3]; 10000 nM) [%] | cell viability (U2OS [4]; 1 nM) [%] | cell viability (U2OS [4]; 10 nM) [%] | cell viability (U2OS [4]; 100 nM) [%] | cell viability (U2OS [4]; 1000 nM) [%] | cell viability (U2OS [4]; 10000 nM) [%] | cell viability (Vero E6 [5]; 1 nM) [%] | cell viability (Vero E6 [5]; 10 nM) [%] | cell viability (Vero E6 [5]; 100 nM) [%] | cell viability (Vero E6 [5]; 1000 nM) [%] | cell viability (Vero E6 [5]; 10000 nM) [%] | relative viability EC50 (Caco-2 [6]) [µM] | relative viability EC50 (Calu-3 [7]) [µM] | relative viability EC50 (HepG2 [8]) [µM] | relative viability EC50 (U2OS [9]) [µM] | relative viability EC50 (Vero E6 [10]) [µM] | drug sensitivity score (Caco-2 [11]) | drug sensitivity score (Calu-3 [12]) | drug sensitivity score (HepG2 [13]) | drug sensitivity score (U2OS [14]) | drug sensitivity score (Vero E6 [15])
O=C(O)c1ccc(NC(=O)[C@H](Cc2ccc(O)cc2)NC(=O)c2ccccc2)cc1 [bentiromide] | 92.1 | 92 | 92.3 | 87 | 104 | 107 | 101 | 104 | 95.4 | 95 | 91.9 | 116 | 102 | 106 | 102 | 105 | 102 | 107 | 99.5 | 108 | 93.5 | 107 | 94.4 | 99 | 106 | > 10 | > 10 | > 10 | > 10 | > 10 | 0 | 0 | 0 | 0 | 0
O=c1c(-n2ccnn2)c[nH]n1-c1cc(N2CCOCC2)ncn1 [molidustat] | 100 | 107 | 100 | 97.2 | 96 | 78.6 | 97.9 | 87.8 | 104 | 88 | 104 | 95.4 | 94.8 | 93.2 | 95.3 | 98.1 | 97.7 | 94.7 | 103 | 91.4 | 108 | 99.4 | 104 | 95.8 | 90.9 | > 10 | > 10 | > 10 | > 10 | > 10 | 0 | 0 | 0 | 0 | 0
Cc1cccc(C)c1-n1c(=O)c2cnc(Nc3ccc(N4CCN(C)CC4)cc3)nc2n2c3ccccc3nc12 [TC-S-7003] | 88.3 | 87.9 | 88.3 | 66.1 | 11.6 | 106 | 101 | 95.6 | 70.5 | 5.2 | 98 | 101 | 82 | 58.6 | 9 | 97 | 98.2 | 91.8 | 56.5 | 0.4 | 96.9 | 97.4 | 71.7 | 54.6 | 10.6 | 1.31 | 1.4 | 0.915 | 1.15 | 0.527 | 8.7 | 9.4 | 10.5 | 10.5 | 12.6
CCCC(C)C1(CC)C(=O)NC(=S)NC1=O (stereo not given) [thiopental] | 100 | 100 | 104 | 96.4 | 91 | 99.6 | 98.6 | 93.3 | 102 | 98.8 | 102 | 100 | 101 | 90.5 | 89.5 | 100 | 98.2 | 99.9 | 101 | 97.5 | 96.2 | 95.2 | 94 | 95.7 | 95.1 | > 10 | > 10 | > 10 | > 10 | > 10 | 0 | 0 | 0.1 | 0 | 0
CCNC(=O)Nc1ccc(-c2nc3c(c(N4CCOC[C@@H]4C)n2)CCN(C2COC2)C3)cc1 [GDC-0349] | 107 | 95.7 | 82.3 | 51.7 | 35 | 101 | 100 | 79 | 39.5 | 29.5 | 114 | 99.8 | 95.9 | 49 | 26.3 | 102 | 98.9 | 94.6 | 66.2 | 21.1 | 106 | 105 | 94.2 | 81.2 | 40.3 | 0.295 | 0.211 | 0.6 | 1.17 | 1.46 | 11.1 | 13.7 | 10.4 | 8.3 | 5.6
CC1CC(OC(=O)C(O)c2ccccc2)CC(C)(C)N1C (stereo not given) [eucatropine] | 99.3 | 103 | 97 | 99.2 | 92.6 | 101 | 100 | 92.5 | 95 | 107 | 93.5 | 88.3 | 95.3 | 90 | 93.3 | 104 | 104 | 97.8 | 100 | 100 | 97.8 | 102 | 98.2 | 102 | 98.8 | > 10 | > 10 | > 10 | > 10 | > 10 | 0 | 0 | 0 | 0 | 0
CC[N+](CC)(CC)CC(=O)Nc1c(C)cccc1C [QX-314] | 91.8 | 93.4 | 97 | 102 | 95.6 | 102 | 93.6 | 89.1 | 96.9 | 89.2 | 95.3 | 104 | 92.6 | 94.4 | 95.7 | 103 | 96.9 | 102 | 95.7 | 101 | 95.9 | 99.2 | 93.7 | 97.8 | 93.6 | > 10 | > 10 | > 10 | > 10 | > 10 | 0 | 0 | 0 | 0 | 0
CCOc1cccc(NC(=O)c2ccc(N3CCCC3)c(C(F)(F)F)c2)c1 [EPPTB] | 106 | 101 | 89 | 92.7 | 86.4 | 98.9 | 99.5 | 98.3 | 102 | 83.9 | 90.9 | 96.2 | 96.4 | 91.5 | 97.5 | 101 | 99.2 | 97.4 | 99.1 | 90.9 | 101 | 102 | 97.3 | 95.5 | 101 | > 10 | > 10 | > 10 | > 10 | > 10 | 1.6 | 0.2 | 0 | 0 | 0
COC1CCN(C(=O)c2cc(Cc3n[nH]c(=O)c4ccccc34)ccc2F)CC1 [AZD2461] | 90.3 | 97.5 | 95.5 | 100 | 93.6 | 86.7 | 100 | 79.8 | 69.5 | 92.5 | 99.5 | 86 | 85.5 | 93.8 | 87.2 | 94.4 | 96 | 99.1 | 94.4 | 100 | 99.3 | 97 | 99.7 | 97.9 | 99.9 | > 10 | > 10 | > 10 | > 10 | > 10 | 0 | 0 | 3.4 | 0 | 0
O=C1C(=C(O)/C=C/c2ccc(O)cc2)C(=O)[C@@](O)([C@@H]2O[C@H](CO)[C@@H](O)[C@H](O)[C@H]2O)C(=O)[C@H]1[C@@H]1O[C@H](CO)[C@@H](O)[C@H](O)[C@H]1O | 102 | 91.2 | 93.1 | 93.3 | 95.8 | 103 | 97.6 | 102 | 101 | 97.9 | 102 | 97.2 | 104 | 102 | 106 | 101 | 97.8 | 95 | 99.3 | 98.6 | 101 | 98.1 | 98.5 | 95.8 | 98.5 | > 10 | > 10 | > 10 | > 10 | > 10 | 0 | 0 | 0 | 0 | 0
CC(C)(C)c1ccc(C(=O)Nc2cn3cc(-n4ccnc4)ccc3n2)cc1 [TC-ASK-10] | 96.1 | 101 | 99.3 | 109 | 81.8 | 97.9 | 95.6 | 105 | 105 | 93.9 | 87.1 | 102 | 98.4 | 104 | 77.2 | 96.4 | 97.3 | 99.5 | 98.8 | 91.6 | 93.2 | 103 | 93.8 | 95.5 | 99.1 | > 10 | > 10 | > 10 | > 10 | > 10 | 0.2 | 0 | 0.6 | 0 | 0
COc1ncc2cc(C(=O)Nc3cc(C(=O)NCc4cccc(Cl)c4)ccc3Cl)c(=O)[nH]c2n1 [TC-S-7004] | 111 | 107 | 99.6 | 98.6 | 95 | 94.8 | 94.8 | 105 | 104 | 104 | 98.6 | 97.4 | 100 | 87.7 | 101 | 98.8 | 102 | 103 | 103 | 99.1 | 104 | 101 | 102 | 100 | 95 | > 10 | > 10 | > 10 | > 10 | > 10 | 0 | 0 | 0 | 0 | 0
N=C(N)NCCC[C@H](N)C(=O)O [L-arginine] | 97.6 | 114 | 96.9 | 107 | 98.9 | 104 | 95.7 | 104 | 99 | 99.3 | 95.3 | 96.5 | 95.5 | 96 | 89.4 | 105 | 94.9 | 99.6 | 94.6 | 101 | 97.2 | 99.2 | 102 | 103 | 102 | > 10 | > 10 | > 10 | > 10 | > 10 | 0 | 0 | 0 | 0 | 0
CNCCCC1(c2ccccc2)OC(C)(C)c2ccccc21 (stereo not given) [talopram] | 91.4 | 104 | 103 | 101 | 99.2 | 99.4 | 102 | 102 | 96.3 | 103 | 101 | 102 | 89.8 | 110 | 106 | 101 | 98.7 | 100 | 99.4 | 99 | 93.7 | 96.8 | 90.1 | 99 | 104 | > 10 | > 10 | > 10 | > 10 | > 10 | 0 | 0 | 0 | 0 | 0
